Data as given in patent US20100240758A1, “EXTERNAL PREPARATION FOR PERCUTANEOUS ADMINISTRATION CONTAINING NONSTEROIDAL ANTI-INFLAMMATORY ANALGESIC” (Hisamitsu Pharmaceutical Co., Inc., priority 2003, published 2010).

Experiments:
Balb/c mouse [1] = assay: In vivo phototoxicity test (auricular light irradiation, ear swelling due to ketoprofen); details: UVA 40 J/cm^2, 24 hours after irradiation, toward KP group
Experimental: The experiment below was carried out by partially refining the method of Gerberick et al., (Food Chem. Toxicol., 27, 813-819 (1989)). That is, a Balb/c mouse (female, 9 to 11 weeks old) was used as a test animal, each of the test substances {4-tert-butyl-4′-methoxydibenzoylmethane (BM-DBM), 2-ethylhexyl dimethoxybenzylidenedioxoimidazolidine propionate (DB-DIH), terephthalylidene-3,3′-dicamphor-10,10′-disulfonic acid (TP-DCS), n-hexyl 2-(4-diethylamino-2-hydroxybenzoyl)benzoate (DHB-BH)} and 2% ketoprofen (KP) were dissolved in ethanol and applied to the auricle, and it was irradiated with UVA at 40 J/cm^2. 24 hours after UVA irradiation, the ear thickness was measured, and an increase from the ear thickness prior to the start of the test was calculated. The effect in suppressing phototoxicity due to KP was evaluated for each test substance using as an index the degree of suppression of the increase in ear thickness due to KP, that is, the ear swelling suppression rate (%) toward the KP group.

[2] = test system: Hartley white female guinea pig; assay: In vivo photoallergy test 2 (skin photoallergy test, Adjuvant and Strip Method); details: 2% KP + 2% test substance, toward KP group
Experimental: A skin photoallergy test using a guinea pig was carried out by partially refining the Adjuvant and Strip Method of Sato et al., (The Nishinihon Journal of Dermatology, 42, 831-837 (1980)). That is, the back of the neck of a Hartley white female guinea pig (a group of 8 animals) was depilated, an adjuvant was administered to four corners of 2×2 cm, a 2% ethanol solution of ketoprofen (KP) or a solution of 2% KP+2% test substance {4-tert-butyl-4′-methoxydibenzoylmethane ([…])} was openly applied to the 2×2 cm area, and 1 hour later it was irradiated with UVA (10 J/cm^2). This sensitization induction treatment was carried out for 5 days in succession. 3 weeks after starting the sensitization, the back of the hip was depilated, the same solution as for the sensitization was openly applied to a 2×2 cm area, and 1 hour later it was irradiated with UVA (10 J/cm^2) to thus carry out a photoinduction. A skin reaction 24 and 48 hours after the irradiation was evaluated in accordance with the above-mentioned criteria of Sato et al. The effect of BM-DBM in suppressing photoallergy due to KP was evaluated by erythema and swelling suppression rates (%) toward the KP group.

Balb/c mouse [3] = assay: In vivo photoallergy test 1 (refined Murine Local Lymph Node Assay, 3H-TdR uptake); details: UVA 20 J/cm^2, 3 days, toward KP group
Experimental: A KP photoallergy detection test was carried out by refining the Murine Local Lymph Node Assay (LLNA) proposed by the Interagency Coordinating Committee on the Validation of Alternative Methods (ICCVAM). That is, a Balb/c mouse (female, 8 to 12 weeks old) was used as a test animal, a solution of a test substance {4-tert-butyl-4′-methoxydibenzoylmethane (BM-DBM)} and 2% ketoprofen (KP) prepared in acetone—olive oil (4:1, v/v) was applied to the back of the pinna, and it was irradiated with UVA at 20 J/cm^2. This sensitization induction treatment was carried out for 3 days in succession. 5 days after starting the sensitization, 20 μCi per mouse of ^3H-methyl thymidine (^3H-TdR)/PBS solution was injected into the tail vein, and 5 hours later an auricular lymph node was removed. The removed lymph node was made into a single lymph cell suspension using a cell strainer, and after washing twice with PBS was then allowed to stand in a 5% trichloroacetic acid (TCA) solution at 4° C. overnight to thus make DNA precipitate. After the precipitate was suspended in 1 mL of 5% TCA solution, the radioactivity was measured using a liquid scintillation counter. The effect of the test substance in suppressing photoallergy due to KP was evaluated using as an index the degree of suppression of the increase in ^3H-TdR uptake by KP, that is, the ^3H-TdR uptake suppression rate (%) toward the KP group.

[4] = test substance 0.5% with 2% KP in ethanol on auricle

COc1ccc(C(=O)CC(=O)c2ccc(C(C)(C)C)cc2)cc1 [BM-DBM, 4-tert-butyl-4′-methoxydibenzoylmethane]
Ear Swelling Suppression Rate (%) (Balb/c mouse [1]; test substance 0.1% with 2% KP in ethanol on auricle): 41%
Ear Swelling Suppression Rate (%) (Balb/c mouse [1]; test substance 0.3% with 2% KP in ethanol on auricle): 81%
Ear Swelling Suppression Rate (%) (Balb/c mouse [1]; [4]): 98%
Erythema/Swelling Suppression Rate (%) After 24 Hr ([2]; UVA 10 J/cm^2, 24 hours after photoinduction irradiation): 69%
Erythema/Swelling Suppression Rate (%) After 48 Hr ([2]; UVA 10 J/cm^2, 48 hours after photoinduction irradiation): 74%
^3H-TdR Uptake Suppression Rate (%) (Balb/c mouse [3]; BM-DBM 0.06% with 2% KP in acetone-olive oil): 30%
^3H-TdR Uptake Suppression Rate (%) (Balb/c mouse [3]; BM-DBM 0.13% with 2% KP in acetone-olive oil): 51%
^3H-TdR Uptake Suppression Rate (%) (Balb/c mouse [3]; BM-DBM 0.25% with 2% KP in acetone-olive oil): 24%
^3H-TdR Uptake Suppression Rate (%) (Balb/c mouse [3]; BM-DBM 0.50% with 2% KP in acetone-olive oil): 94%
^3H-TdR Uptake Suppression Rate (%) (Balb/c mouse [3]; BM-DBM 1.00% with 2% KP in acetone-olive oil): 99%

CCCCC(CC)COC(=O)CCN1C(=O)NC(=Cc2ccc(OC)c(OC)c2)C1=O (stereo not shown) [DB-DIH, 2-ethylhexyl dimethoxybenzylidenedioxoimidazolidine propionate]
Ear Swelling Suppression Rate (%) (Balb/c mouse [1]; [4]): 34%

CCCCCCOC(=O)c1ccccc1C(=O)c1ccc(N(CC)CC)cc1O [DHB-BH, n-hexyl 2-(4-diethylamino-2-hydroxybenzoyl)benzoate]
Ear Swelling Suppression Rate (%) (Balb/c mouse [1]; [4]): 84%

CC1(C)C2CCC1(CS(=O)(=O)O)C(=O)/C2=C\c1ccc(/C=C2/C(=O)C3(CS(=O)(=O)O)CCC2C3(C)C)cc1 [TP-DCS, terephthalylidene-3,3′-dicamphor-10,10′-disulfonic acid]
Ear Swelling Suppression Rate (%) (Balb/c mouse [1]; [4]): 65%
